Source: US9169290B2, “Peptides and their use” (priority 2007, dated 2015)
Converted amounts (≈) assume the structure as drawn. Like-named read-outs stand apart in the source and are kept apart here.

How the values were obtained:
C. albicans = assay type: cell-based, Candida albicans
Protocol: (§1) Broth Dilution Antifungal Susceptibility Testing
(§2) The sensitivity of relevant fungal strains to the peptides was determined using Clinical Laboratory Standard Institute (CLSI; formerly NCCLS) Approved Standards.

C. krusei = assay type: cell-based, Candida krusei; conditions: for MIC, Candida krusei NCPF3953: Candida spp. Type Strains MIC Data table, strain NCPF3953
Protocol: as §1, §2

C. parapsilosis = assay type: cell-based, Candida parapsilosis
Protocol: as §1
The sensitivity of relevant fungal strains to the peptides was determined using Clinical Laboratory Standard Institute (CLSI; formerly NCCLS) Approved Standards. Fungal susceptibility was tested using “Reference Method for Broth Dilution Antifungal Susceptibility Testing of Filamentous Fungi; […];

Malasezzia furfur = assay type: cell-based; conditions: Malasezzia furfur strain DSM6170
Protocol: as §1, §2

Trichophyton rubrum = assay type: cell-based; conditions: Trichophyton rubrum strain NCPF118
Protocol: as §1, §2

C. tropicalis = experiment: Broth dilution antifungal susceptibility testing of yeasts (CLSI M27-A), MIC; assay type: cell-based, Candida tropicalis; conditions: C. tropicalis strain ATCC750
Protocol: as §1
(§3) The sensitivity of relevant fungal strains to the peptides was determined using Clinical Laboratory Standard Institute (CLSI; formerly NCCLS) Approved Standards. Fungal susceptibility was tested using “Reference Method for Broth Dilution Antifungal Susceptibility Testing of Filamentous Fungi; Approved Standard M38-P”, and yeast susceptibility was tested using “Reference Method for Broth Dilution Antifungal Susceptibility Testing of Yeasts; Approved Standard—Second Edition M27-A”.

Alternaria spp. = experiment: Broth dilution antifungal susceptibility testing, MIC; assay type: cell-based; conditions: Alternaria spp. strain DM 2006 1218a
Protocol: as §1, §3

Penicillium spp. = experiment: as above; assay type: cell-based; conditions: Penicillium spp. strain DM 2006 1285b
Protocol: as §1, §3

[1] = test system: Scopulariopsis brevicaulis; experiment: as above; assay type: cell-based; conditions: Scopulariopsis brevicaulis strain DM 2006 1025
Protocol: as §1, §3

Fusarium spp. = experiment: as above; assay type: cell-based; conditions: Fusarium spp. strain DM 2006 1133
Protocol: as §1, §3

Fusarium solani = experiment: as above; assay type: cell-based; conditions: Fusarium solani strain NCPF2877
Protocol: as §1, §3

[2] = C. parapsilosis strain ATCC22019
[3] = C. parapsilosis strain ATCC90018

In the case of `N=C(N)NCCC[C@H](NC(=O)[C@H](CCCNC(=N)N)NC(=O)[C@H](CCCNC(=N)N)NC(=O)[C@H](CCCNC(=N)N)NC(=O)[C@H](CCCNC(=N)N)NC(=O)[C@H](CCCNC(=N)N)NC(=O)[C@H](CCCNC(=N)N)NC(=O)[C@H](CCCNC(=N)N)NC(=O)[C@H](CCCNC(=N)N)NC(=O)[C@H](CCCNC(=N)N)NC(=O)[C@H](CCCNC(=N)N)NC(=O)[C@H](CCCNC(=N)N)NC(=O)[C@@H](N)CCCNC(=N)N)C(=O)O` [NP318], the “MIC, Candida albicans NCTC3179” value (C. albicans) is reported as 4 µM (≈ 8.19 µg/mL), the MIC (C. krusei; C. krusei strain ATCC6258) is reported as under 16 µM and the MIC (C. krusei; C. krusei strain NCPF3953) is reported as 8 µM (≈ 16.4 µg/mL). The “MIC, Candida krusei NCPF3953” value (C. krusei) was 8 µM (≈ 16.4 µg/mL), the MIC (C. parapsilosis; [2]) was 256 µM (≈ 524 µg/mL) and the MIC (Malasezzia furfur) was 62.5 µM (≈ 128 µg/mL). For the same molecule, the MIC (Trichophyton rubrum) was over 2 µM.
With `N=C(N)NCCC[C@H](NC(=O)[C@H](CCCNC(=N)N)NC(=O)[C@H](CCCNC(=N)N)NC(=O)[C@H](CCCNC(=N)N)NC(=O)[C@H](CCCNC(=N)N)NC(=O)[C@H](CCCNC(=N)N)NC(=O)[C@H](CCCNC(=N)N)NC(=O)[C@H](CCCNC(=N)N)NC(=O)[C@H](CCCNC(=N)N)NC(=O)[C@H](CCCNC(=N)N)NC(=O)[C@H](CCCNC(=N)N)NC(=O)[C@H](CCCNC(=N)N)NC(=O)[C@@H](N)CCCNC(=N)N)C(=O)O` [NP337] the “MIC, Candida albicans ATCC24433” value (C. albicans) was 2 µM (≈ 4.1 µg/mL), the “MIC, Candida albicans ATCC90028” value (C. albicans) was 4 µM (≈ 8.19 µg/mL) and the “MIC, Candida albicans NCTC3179” value (C. albicans) was 2 µM (≈ 4.1 µg/mL). The MIC (C. krusei; C. krusei strain ATCC6258) was 2 µM (≈ 4.1 µg/mL), the MIC (C. krusei; C. krusei strain NCPF3953) was 16 µM (≈ 32.8 µg/mL) and the “MIC, Candida krusei NCPF3953” value (C. krusei) was 16 µM (≈ 32.8 µg/mL). It also gave an MIC (C. tropicalis) of 2 µM (≈ 4.1 µg/mL), an MIC (C. parapsilosis; [2]) of 32 µM (≈ 65.6 µg/mL) and an MIC (C. parapsilosis; [3]) of 128 µM (≈ 262 µg/mL). It also gave an MIC (Malasezzia furfur) of 31.25 µM (≈ 64 µg/mL).
`CC(=O)N[C@@H](CCCNC(=N)N)C(=O)N[C@@H](CCCNC(=N)N)C(=O)N[C@@H](CCCNC(=N)N)C(=O)N[C@@H](CCCNC(=N)N)C(=O)N[C@@H](CCCNC(=N)N)C(=O)N[C@@H](CCCNC(=N)N)C(=O)N[C@@H](CCCNC(=N)N)C(=O)N[C@@H](CCCNC(=N)N)C(=O)N[C@@H](CCCNC(=N)N)C(=O)N[C@@H](CCCNC(=N)N)C(=O)N[C@@H](CCCNC(=N)N)C(=O)N[C@@H](CCCNC(=N)N)C(=O)N[C@@H](CCCNC(=N)N)C(N)=O` [NP338] was tested, and the “MIC, Candida albicans ATCC24433” value (C. albicans) was 2 µM (≈ 4.18 µg/mL), the “MIC, Candida albicans ATCC90028” value (C. albicans) was 4 µM (≈ 8.36 µg/mL) and the “MIC, Candida albicans NCTC3179” value (C. albicans) was 2 µM (≈ 4.18 µg/mL). The MIC (C. krusei; C. krusei strain ATCC6258) was 2 µM (≈ 4.18 µg/mL), the MIC (C. krusei; C. krusei strain NCPF3953) was 8 µM (≈ 16.7 µg/mL) and the “MIC, Candida krusei NCPF3953” value (C. krusei) was 8 µM (≈ 16.7 µg/mL). It also gave an MIC (C. tropicalis) of 2 µM (≈ 4.18 µg/mL), an MIC (C. parapsilosis; [2]) of 8 µM (≈ 16.7 µg/mL) and an MIC (C. parapsilosis; [3]) of 128 µM (≈ 267 µg/mL). For the same molecule, the MIC (Malasezzia furfur) was under 15.6 µM.
In the case of Poly-L-Arginine (MW 5-15 kDa) [NP121], the MIC (Alternaria spp.) is reported as 13.2 (μg/ml), the MIC (Penicillium spp.) is reported as 15.6 (μg/ml) and the MIC [1] is reported as 3.9 (μg/ml). For the same molecule, the MIC (Fusarium spp.) was 156 (μg/ml) and the MIC (Fusarium solani) was 7.8 (μg/ml).
In the case of Poly-L-Lysine (MW 10-20 kDa) [NP108], the MIC (Alternaria spp.) is reported as 62.5 (μg/ml), the MIC (Penicillium spp.) is reported as 31.2 (μg/ml) and the MIC [1] is reported as 3.9 (μg/ml). The MIC (Fusarium spp.) was 125 (μg/ml) and the MIC (Fusarium solani) was 256 (μg/ml).
